Calls of active or inactive are those of the source.
Columns and labels:
[1] = biological target: Photoreceptor-specific nuclear receptor (Homo sapiens, UniProt Q9Y5X4); assay: NR2E3 inverse agonists, dose response, biochemical, TR-FRET (AID 463256); type: functional
[2] = biological target: 26S proteasome non-ATPase regulatory subunit 14 (Homo sapiens, UniProt O00487); assay: inhibition of proteasome subunit RPN11 – biochemical, fluorescence polarization, uHTS hits, confirmation (AID 602368); type: functional
Chain of 26S proteasome non-ATPase regulatory subunit 14 (O00487 whole entry): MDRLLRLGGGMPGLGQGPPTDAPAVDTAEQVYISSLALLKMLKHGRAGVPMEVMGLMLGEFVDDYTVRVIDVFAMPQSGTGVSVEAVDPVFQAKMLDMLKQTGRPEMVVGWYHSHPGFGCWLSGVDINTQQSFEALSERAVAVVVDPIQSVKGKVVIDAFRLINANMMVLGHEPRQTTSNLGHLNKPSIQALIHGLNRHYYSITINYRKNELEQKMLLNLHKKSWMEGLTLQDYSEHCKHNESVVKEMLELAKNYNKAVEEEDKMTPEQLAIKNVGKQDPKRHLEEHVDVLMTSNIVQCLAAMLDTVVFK

[3] = biological target: Prothrombin (Bos taurus, UniProt P00735); assay: thrombin inhibition, dose response, biochemical, fluorescence polarization, uHTS hits (AID 602369); type: functional
[4] = biological target: 72 kDa type IV collagenase (Homo sapiens, UniProt P08253); assay: Dose Response validation of uHTS RPN11 inhibitor hits using a MMP-2 Fluorescence assay.; type: functional
Chain of 72 kDa type IV collagenase (P08253 whole entry): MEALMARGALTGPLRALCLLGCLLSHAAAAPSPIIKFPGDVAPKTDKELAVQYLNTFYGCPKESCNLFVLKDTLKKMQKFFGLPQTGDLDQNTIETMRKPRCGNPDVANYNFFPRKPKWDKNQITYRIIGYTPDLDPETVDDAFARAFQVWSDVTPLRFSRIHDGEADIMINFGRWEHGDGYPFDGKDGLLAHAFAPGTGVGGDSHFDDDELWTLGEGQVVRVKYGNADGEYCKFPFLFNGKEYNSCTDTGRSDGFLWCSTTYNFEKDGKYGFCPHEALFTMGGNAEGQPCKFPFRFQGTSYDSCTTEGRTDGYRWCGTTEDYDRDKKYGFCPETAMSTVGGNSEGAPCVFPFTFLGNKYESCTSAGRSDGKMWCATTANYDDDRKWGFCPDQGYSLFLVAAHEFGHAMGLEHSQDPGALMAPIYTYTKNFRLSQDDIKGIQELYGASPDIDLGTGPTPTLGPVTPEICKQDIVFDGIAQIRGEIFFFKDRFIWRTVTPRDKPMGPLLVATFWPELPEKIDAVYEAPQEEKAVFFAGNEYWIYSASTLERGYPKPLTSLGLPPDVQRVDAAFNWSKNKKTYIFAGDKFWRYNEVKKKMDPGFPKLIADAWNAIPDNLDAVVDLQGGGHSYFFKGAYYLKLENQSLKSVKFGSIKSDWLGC

[5] = biological target: Peroxisome proliferator-activated receptor gamma/Nuclear receptor corepressor 2 (Homo sapiens, UniProt P37231+Q9Y618); assay: Counterscreen for NR2E3 inverse agonists: TR-FRET-based biochemical high throughput dose response assay to identify inverse agonists of the interaction between peroxisome proliferator-activated receptor gamma (PPARg) and nuclear receptor co-repressor 2 (NCOR2).; type: functional
[6] = biological target: T1, Tyrosine-protein phosphatase non-receptor type 11 (Homo sapiens, UniProt Q06124); assay: SHP2 phosphatase inhibition, dose response, selectivity assay for STEP inhibitor project, biochemical (AID 602367); type: functional; settings: read-out: IC50_Mean
T1 sequence (Q06124 whole entry): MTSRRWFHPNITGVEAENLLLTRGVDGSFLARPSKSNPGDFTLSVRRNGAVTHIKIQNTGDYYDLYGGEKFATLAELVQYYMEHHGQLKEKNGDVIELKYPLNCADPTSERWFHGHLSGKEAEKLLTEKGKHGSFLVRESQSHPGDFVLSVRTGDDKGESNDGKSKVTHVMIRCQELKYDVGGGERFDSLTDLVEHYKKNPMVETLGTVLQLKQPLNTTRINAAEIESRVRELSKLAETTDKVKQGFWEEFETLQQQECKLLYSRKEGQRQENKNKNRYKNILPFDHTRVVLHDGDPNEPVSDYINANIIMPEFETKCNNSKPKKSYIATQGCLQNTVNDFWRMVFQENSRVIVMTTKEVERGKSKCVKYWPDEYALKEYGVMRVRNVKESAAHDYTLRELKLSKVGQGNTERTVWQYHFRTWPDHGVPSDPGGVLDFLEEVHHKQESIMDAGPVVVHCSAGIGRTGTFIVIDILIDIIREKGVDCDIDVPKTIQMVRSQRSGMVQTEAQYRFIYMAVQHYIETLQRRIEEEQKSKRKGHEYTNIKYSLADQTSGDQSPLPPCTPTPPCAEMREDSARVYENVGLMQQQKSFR

[7] = biological target: Dual specificity protein phosphatase 3 (Homo sapiens, UniProt P51452); assay: VHR phosphatase inhibition, dose response, selectivity assay for STEP inhibitor project, biochemical (AID 602374); type: functional; settings: read-out: IC50_Mean
Chain of Dual specificity protein phosphatase 3 (P51452 whole entry, the tested form may be a part): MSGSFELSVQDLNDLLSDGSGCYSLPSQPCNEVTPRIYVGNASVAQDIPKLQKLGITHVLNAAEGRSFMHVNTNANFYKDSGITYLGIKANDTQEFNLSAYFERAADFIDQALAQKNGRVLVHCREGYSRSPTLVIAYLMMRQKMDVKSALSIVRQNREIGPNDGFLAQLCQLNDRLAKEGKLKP

[8] = biological target: T2, Carboxy-terminal domain RNA polymerase II polypeptide A small phosphatase 1 (Homo sapiens, UniProt Q9GZU7); assay: inhibitors of CTDSP1, concentration-response testing, biochemical assay, absorbance-based, actives from ultra-high-throughput screening (AID 540297); type: functional
T2 sequence (Q9GZU7 whole entry): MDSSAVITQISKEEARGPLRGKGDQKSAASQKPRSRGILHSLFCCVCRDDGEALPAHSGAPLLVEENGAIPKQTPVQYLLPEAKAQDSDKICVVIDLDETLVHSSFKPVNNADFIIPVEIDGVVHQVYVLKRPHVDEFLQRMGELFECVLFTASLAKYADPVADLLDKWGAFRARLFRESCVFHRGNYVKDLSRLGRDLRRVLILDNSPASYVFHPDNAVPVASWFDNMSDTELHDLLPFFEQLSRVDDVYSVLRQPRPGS

[9] = biological target: T3, Tyrosine-protein phosphatase non-receptor type 5 (Homo sapiens, UniProt P54829); assay: STEP phosphatase inhibitors, confirmation, biochemical, fluorescence intensity, uHTS hits (AID 602372); type: functional; settings: read-out: IC50_Mean
T3 sequence (P54829 whole entry): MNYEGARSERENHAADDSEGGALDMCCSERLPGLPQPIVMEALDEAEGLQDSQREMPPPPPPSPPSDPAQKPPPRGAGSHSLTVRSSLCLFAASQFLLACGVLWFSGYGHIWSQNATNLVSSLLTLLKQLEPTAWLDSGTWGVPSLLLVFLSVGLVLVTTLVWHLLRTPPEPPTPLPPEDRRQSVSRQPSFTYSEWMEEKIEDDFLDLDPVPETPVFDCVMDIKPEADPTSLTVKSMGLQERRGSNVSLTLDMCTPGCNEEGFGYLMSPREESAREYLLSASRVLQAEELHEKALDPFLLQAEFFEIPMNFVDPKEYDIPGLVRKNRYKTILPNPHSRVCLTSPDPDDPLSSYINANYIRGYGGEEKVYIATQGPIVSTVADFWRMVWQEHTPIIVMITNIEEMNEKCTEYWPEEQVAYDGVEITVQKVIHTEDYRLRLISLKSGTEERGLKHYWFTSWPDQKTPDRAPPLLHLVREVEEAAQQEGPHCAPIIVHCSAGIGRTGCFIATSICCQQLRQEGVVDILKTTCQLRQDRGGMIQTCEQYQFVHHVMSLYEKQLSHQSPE

[10] = biological target: Ras and Rab interactor 1/Tyrosine-protein kinase ABL1 (Homo sapiens, UniProt P00519+Q13671); assay: biochemical; type: functional;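 also: biochemical TR-FRET dose-response test measuring inhibition of binding between Rin1 and Abl proteins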
Chain of Ras and Rab interactor 1/Tyrosine-protein kinase ABL1 (P00519 whole entry): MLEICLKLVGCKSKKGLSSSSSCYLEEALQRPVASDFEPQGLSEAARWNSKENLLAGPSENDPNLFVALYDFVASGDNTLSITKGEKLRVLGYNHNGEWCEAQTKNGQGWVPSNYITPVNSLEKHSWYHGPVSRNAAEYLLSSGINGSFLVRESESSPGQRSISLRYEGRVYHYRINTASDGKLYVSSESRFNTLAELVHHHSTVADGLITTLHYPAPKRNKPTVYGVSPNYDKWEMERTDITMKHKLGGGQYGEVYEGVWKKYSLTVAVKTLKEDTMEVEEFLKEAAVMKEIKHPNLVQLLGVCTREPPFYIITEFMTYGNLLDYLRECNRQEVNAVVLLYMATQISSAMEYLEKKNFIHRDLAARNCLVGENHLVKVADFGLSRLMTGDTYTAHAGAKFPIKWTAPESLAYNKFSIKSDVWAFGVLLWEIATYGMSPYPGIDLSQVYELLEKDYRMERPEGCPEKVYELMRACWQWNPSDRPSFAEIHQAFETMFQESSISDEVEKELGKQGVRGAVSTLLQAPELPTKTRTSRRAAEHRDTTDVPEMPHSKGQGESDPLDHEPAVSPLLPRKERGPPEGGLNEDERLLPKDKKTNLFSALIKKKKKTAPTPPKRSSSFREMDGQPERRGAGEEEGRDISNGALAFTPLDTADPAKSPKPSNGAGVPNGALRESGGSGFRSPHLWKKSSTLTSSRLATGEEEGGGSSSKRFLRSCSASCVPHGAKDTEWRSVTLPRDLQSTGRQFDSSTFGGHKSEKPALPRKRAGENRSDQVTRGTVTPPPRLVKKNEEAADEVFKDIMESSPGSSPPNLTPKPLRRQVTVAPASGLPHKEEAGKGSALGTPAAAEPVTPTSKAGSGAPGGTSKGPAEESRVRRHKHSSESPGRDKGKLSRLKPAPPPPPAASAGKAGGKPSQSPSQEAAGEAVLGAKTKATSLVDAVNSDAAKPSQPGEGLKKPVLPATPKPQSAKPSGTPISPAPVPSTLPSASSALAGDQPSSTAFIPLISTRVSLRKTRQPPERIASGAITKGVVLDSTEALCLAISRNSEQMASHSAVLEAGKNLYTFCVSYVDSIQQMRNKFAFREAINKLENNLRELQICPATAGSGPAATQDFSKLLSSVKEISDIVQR
Chain of Ras and Rab interactor 1/Tyrosine-protein kinase ABL1 (Q13671 whole entry): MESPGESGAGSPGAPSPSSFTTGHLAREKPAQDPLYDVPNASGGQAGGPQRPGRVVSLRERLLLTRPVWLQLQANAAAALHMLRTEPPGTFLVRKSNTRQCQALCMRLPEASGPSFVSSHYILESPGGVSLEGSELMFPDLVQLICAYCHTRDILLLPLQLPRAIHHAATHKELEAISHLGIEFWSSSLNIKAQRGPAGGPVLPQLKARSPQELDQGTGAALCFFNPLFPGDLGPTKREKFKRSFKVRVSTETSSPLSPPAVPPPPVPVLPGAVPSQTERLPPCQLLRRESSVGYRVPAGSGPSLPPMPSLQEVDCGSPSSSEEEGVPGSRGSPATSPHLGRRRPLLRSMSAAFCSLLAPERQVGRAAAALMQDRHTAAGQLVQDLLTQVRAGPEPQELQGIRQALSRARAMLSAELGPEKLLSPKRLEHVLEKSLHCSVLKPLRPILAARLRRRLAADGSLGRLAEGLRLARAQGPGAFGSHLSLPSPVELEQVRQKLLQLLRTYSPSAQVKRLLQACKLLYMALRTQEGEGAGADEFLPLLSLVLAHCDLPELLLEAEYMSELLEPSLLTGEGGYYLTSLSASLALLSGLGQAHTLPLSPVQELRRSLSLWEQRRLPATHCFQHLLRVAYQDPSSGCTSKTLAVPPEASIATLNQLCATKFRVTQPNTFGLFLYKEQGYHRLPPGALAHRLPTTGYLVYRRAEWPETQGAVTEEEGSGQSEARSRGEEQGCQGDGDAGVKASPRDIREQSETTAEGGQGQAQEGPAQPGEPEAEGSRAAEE

[11] = biological target: Nonstructural protein 1 (Influenza A virus, UniProt Q194T2); type: functional, Influenza A virus (A/California/07/2009(H1N1))
Chain of Nonstructural protein 1 (Q194T2 whole entry): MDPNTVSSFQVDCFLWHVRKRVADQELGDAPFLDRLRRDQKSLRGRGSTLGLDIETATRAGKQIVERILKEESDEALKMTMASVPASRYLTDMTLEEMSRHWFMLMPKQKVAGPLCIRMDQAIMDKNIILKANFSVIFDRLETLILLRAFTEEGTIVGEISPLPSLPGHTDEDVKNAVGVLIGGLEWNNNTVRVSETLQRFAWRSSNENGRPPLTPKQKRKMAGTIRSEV

[12] = biological target: T4, Histone-lysine N-methyltransferase NSD2 (Homo sapiens, UniProt O96028); type: biochemical
T4 sequence (O96028 whole entry): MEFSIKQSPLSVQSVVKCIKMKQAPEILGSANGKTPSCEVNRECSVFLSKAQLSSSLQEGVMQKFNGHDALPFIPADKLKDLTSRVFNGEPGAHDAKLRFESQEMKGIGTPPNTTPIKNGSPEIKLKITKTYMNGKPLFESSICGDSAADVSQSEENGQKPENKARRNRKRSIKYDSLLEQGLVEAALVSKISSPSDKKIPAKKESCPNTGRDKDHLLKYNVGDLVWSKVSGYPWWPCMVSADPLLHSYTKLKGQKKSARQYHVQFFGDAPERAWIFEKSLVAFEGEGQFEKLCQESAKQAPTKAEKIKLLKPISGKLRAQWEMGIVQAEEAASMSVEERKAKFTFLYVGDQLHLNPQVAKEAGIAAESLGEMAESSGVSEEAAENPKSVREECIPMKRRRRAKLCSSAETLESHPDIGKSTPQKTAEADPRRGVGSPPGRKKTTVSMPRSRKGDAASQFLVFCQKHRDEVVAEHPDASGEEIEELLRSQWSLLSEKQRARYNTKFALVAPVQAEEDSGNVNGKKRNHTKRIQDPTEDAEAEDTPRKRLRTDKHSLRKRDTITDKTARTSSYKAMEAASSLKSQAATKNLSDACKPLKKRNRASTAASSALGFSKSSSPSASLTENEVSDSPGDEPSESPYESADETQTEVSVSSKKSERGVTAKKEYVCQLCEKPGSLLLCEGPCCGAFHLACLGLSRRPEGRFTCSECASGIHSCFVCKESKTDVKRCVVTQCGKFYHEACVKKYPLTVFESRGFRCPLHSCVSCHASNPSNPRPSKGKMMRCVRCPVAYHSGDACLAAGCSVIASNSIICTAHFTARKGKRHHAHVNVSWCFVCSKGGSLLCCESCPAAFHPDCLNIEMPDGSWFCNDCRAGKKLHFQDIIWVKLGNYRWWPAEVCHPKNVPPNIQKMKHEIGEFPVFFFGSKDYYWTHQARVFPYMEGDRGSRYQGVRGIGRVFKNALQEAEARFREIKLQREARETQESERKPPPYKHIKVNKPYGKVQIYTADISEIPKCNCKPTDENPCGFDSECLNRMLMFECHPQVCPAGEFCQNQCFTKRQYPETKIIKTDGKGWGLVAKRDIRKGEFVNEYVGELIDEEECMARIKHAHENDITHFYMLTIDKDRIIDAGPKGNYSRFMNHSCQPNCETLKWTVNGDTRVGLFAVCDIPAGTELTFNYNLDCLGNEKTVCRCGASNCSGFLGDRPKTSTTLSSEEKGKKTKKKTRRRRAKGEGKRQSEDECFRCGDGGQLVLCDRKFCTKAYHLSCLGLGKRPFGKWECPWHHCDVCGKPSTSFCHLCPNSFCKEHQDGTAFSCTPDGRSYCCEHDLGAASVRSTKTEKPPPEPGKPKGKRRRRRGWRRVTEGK

[13] = biological target: T5, Galanin receptor type 3 (Homo sapiens, UniProt O60755); assay: Fluorescence-based cell-based primary high throughput dose response assay to identify antagonists of the Galanin Receptor 3 (GalR3).; type: functional
T5 sequence (O60755 whole entry): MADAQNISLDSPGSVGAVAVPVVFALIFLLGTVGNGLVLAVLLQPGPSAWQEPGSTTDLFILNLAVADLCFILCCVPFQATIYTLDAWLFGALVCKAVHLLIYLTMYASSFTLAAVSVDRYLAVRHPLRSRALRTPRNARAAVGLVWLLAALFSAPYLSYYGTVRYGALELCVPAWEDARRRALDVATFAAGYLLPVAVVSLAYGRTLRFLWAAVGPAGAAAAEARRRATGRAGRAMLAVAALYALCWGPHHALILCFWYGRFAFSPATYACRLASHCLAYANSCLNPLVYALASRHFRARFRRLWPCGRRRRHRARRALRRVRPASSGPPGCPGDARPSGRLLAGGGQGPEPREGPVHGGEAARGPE

[14] = cells; type: functional, cell-based; settings: HEK-CNG
[15] = biological target: Cytochrome P450 2C9 (Homo sapiens, UniProt P11712)
Chain of Cytochrome P450 2C9 (P11712 whole entry): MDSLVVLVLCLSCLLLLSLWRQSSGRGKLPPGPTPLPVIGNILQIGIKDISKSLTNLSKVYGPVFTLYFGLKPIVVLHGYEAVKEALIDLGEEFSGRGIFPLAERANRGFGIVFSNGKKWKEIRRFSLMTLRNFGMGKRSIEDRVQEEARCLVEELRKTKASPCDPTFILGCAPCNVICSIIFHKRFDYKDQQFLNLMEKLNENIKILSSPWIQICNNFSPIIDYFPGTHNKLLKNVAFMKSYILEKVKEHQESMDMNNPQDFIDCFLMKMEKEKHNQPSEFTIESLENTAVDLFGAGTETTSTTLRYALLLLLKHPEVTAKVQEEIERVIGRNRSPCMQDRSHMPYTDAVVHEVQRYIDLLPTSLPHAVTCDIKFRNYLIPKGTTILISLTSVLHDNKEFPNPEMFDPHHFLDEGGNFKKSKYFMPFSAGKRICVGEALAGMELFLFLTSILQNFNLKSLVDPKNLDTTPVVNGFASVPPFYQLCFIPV

[16] = biological target: Cytochrome P450 2C19 (Homo sapiens, UniProt P33261); assay: Cytochrome panel assay with activity outcomes. Panel member name: p450-cyp2c19 Compounds with AC50 equal or less than 10 uM are considered active; type: functional; settings: read-out: AC50
Chain of Cytochrome P450 2C19 (P33261 whole entry): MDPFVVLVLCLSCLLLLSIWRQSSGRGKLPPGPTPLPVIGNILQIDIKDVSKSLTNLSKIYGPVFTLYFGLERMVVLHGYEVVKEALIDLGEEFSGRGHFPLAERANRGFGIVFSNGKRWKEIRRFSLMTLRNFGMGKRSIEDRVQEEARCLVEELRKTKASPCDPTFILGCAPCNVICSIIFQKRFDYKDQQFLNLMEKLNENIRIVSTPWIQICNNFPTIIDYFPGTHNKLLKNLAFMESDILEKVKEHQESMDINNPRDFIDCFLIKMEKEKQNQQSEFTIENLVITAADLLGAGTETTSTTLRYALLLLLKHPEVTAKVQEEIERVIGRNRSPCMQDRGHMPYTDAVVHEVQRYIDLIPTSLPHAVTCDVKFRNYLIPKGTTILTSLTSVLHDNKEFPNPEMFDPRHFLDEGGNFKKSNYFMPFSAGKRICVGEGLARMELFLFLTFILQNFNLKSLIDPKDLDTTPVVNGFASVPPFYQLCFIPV

[17] = biological target: T6, Endoribonuclease toxin MazF (Escherichia coli K-12, UniProt P0AE70); assay: fluorescent RNA oligo signal without MazF, dose response, counter-screen for MazEF activator project, biochemical, fluorescence, single-stranded RNase substrate (AID 588502); type: functional
T6 sequence (P0AE70 whole entry): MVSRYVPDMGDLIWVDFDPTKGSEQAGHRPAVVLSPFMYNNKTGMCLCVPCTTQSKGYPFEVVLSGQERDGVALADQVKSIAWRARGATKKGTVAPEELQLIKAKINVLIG

[18] = biological target: T6, Endoribonuclease toxin MazF; assay: MazF toxin RNase activators, dose response, biochemical, fluorescence, single-stranded RNA substrate, uHTS hits (AID 588481); type: functional
[19] = biological target: T7, Corticotropin-releasing factor receptor 2/Corticotropin-releasing factor-binding protein (Homo sapiens, UniProt P24387+Q13324); assay: activators of CRF receptor 2 with binding protein – uHTS hits, confirmation (AID 602473); type: functional; settings: read-out: EC50_Mean
T7 sequence (Q13324 whole entry): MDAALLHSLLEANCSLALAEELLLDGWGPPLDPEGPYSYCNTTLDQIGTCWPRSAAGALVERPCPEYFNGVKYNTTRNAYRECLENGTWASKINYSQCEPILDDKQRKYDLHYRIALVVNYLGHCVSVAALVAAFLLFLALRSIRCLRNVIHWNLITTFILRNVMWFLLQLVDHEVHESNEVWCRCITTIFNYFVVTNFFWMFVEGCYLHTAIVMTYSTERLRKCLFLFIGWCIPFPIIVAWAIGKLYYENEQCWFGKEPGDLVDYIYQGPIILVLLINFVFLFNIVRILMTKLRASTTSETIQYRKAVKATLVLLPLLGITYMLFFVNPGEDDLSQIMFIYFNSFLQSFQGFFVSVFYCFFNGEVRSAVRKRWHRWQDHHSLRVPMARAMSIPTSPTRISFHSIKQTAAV
T7 sequence (P24387 whole entry): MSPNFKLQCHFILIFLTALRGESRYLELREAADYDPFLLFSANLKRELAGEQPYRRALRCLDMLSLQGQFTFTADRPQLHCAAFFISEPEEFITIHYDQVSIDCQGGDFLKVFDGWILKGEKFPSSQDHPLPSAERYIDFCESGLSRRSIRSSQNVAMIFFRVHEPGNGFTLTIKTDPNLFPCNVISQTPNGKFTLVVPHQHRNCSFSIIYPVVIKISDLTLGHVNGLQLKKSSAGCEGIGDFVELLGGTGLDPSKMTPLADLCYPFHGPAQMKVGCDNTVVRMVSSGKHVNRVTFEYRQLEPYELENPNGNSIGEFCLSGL

Chain of Photoreceptor-specific nuclear receptor (Q9Y5X4 whole entry): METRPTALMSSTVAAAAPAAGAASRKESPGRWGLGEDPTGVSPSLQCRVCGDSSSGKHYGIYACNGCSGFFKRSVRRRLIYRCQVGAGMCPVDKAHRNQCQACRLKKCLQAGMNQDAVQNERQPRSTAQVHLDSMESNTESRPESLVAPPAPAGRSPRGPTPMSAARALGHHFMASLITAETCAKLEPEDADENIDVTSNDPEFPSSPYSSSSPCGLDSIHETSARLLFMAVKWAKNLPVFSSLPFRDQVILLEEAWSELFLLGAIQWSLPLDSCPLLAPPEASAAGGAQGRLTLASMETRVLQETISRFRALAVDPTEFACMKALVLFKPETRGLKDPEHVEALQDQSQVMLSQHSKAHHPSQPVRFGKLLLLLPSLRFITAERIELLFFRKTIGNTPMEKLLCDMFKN

O=C(Nc1nc(-c2nc3ccccc3s2)cs1)c1ccco1
IC50 [1]: 2.44 µM (active) | IC50 [2]: 10.1 µM (active) | IC50 [3]: 75.1 µM (active) | IC50 [4]: > 100 µM (inactive) | IC50 [5]: 3.92 µM (active)

O=C(CCN1C(=O)/C(=C\c2cccs2)SC1=S)Nc1ccccn1
IC50 [2]: 9.93 µM (active) | IC50 [3]: 15.1 µM (active) | IC50 [4]: > 100 µM (inactive)

O=C(COc1ccc([N+](=O)[O-])cc1)Nc1nnc(-c2cccnc2)s1
IC50 [6]: 2.44 µM (active) | IC50 [7]: 4.25 µM (active) | IC50 [8]: 5.51 µM (active) | IC50 [9]: 59.9 µM (inactive)

CN(C(=O)c1ccc(NC(=O)Cc2ccc(NC(=O)C3CCN(C(=O)c4ccccc4)CC3)cc2)cc1)C1CC1
IC50 [10]: 0.407 µM (active)

CC1NC(=O)NC1CCCCCC(=O)Nc1ccc(F)cc1 (centres undefined)
IC50 [11]: 0.979 µM (active) | IC50 [10]: 0.0187 µM (active) | AC50 [12]: 0.113 µM (active)

O=C(C(=O)c1cc(Br)ccc1O)c1cc(Br)ccc1O
IC50 [13]: 1.1 µM (active) | EC50 [14]: > 29.9 µM (inactive)

O=C(NN=C1c2ccccc2-c2ccccc21)c1ccccn1
AC50 [15]: 7.08 µM (inconclusive) | IC50 [2]: 24.4 µM (active) | IC50 [3]: > 100 µM (inactive) | AC50 [16]: 2.82 µM (inconclusive) | IC50 [4]: > 100 µM (inactive)

Cn1c(=O)c2[nH]c(-c3ccccc3Cl)c(O)c2n(C)c1=O
EC50 [17]: 16 µM (active) | EC50 [18]: 55.6 µM (inactive) | EC50 [19]: > 53 µM (inactive)

CC(C)(C)C(=O)Nc1ccc(C(=O)Nc2cccc(Oc3ccc(C(=O)O)c(C(=O)O)c3)c2)cc1
IC50 [6]: 16.5 µM (active) | IC50 [7]: 38.4 µM (inactive) | IC50 [9]: 13.6 µM (active)

Reference: ChEMBL document CHEMBL1201862, “PubChem BioAssay data set” (2004)
